In patent US12503438B2, “Compounds for the treatment of kinase-dependent disorders” (Exelixis, Inc., priority 2019, dated 2025):

Assays:
AXL = target: T1, AXL (Homo sapiens, UniProt P30530); test: AXL autophosphorylation ELISA in A-172 cells; type: cell-based; details: cellular activity, Gas6-stimulated, phospho-AXL ELISA
T1 construct: endogenous in cells; host or cells: A-172 glioblastoma cells (ATCC #CRL-1620)
T1 sequence (P30530 26-894): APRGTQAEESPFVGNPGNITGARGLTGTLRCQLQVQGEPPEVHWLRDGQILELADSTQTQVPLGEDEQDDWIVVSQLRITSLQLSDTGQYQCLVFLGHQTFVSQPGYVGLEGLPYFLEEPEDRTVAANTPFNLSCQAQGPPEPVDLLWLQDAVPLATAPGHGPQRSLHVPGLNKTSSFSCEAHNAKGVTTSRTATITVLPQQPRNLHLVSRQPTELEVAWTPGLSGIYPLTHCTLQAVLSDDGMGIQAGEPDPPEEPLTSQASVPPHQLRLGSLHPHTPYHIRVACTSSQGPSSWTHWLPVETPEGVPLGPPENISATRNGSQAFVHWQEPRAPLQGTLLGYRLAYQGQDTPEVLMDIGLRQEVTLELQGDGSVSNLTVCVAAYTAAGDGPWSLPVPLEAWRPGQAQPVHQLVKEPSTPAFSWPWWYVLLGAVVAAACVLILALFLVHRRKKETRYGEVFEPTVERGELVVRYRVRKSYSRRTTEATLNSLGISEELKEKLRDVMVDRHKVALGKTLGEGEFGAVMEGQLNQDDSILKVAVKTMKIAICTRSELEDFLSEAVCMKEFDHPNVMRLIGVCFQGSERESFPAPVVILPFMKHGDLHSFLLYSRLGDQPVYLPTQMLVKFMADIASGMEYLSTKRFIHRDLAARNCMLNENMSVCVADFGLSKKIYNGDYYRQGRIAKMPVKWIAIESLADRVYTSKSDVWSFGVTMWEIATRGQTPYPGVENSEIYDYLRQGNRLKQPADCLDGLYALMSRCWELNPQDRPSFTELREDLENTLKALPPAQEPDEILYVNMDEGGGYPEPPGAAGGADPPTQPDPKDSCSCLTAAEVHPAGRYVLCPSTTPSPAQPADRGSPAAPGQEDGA
Procedure, shortened: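 Serum-starved (24 h) A-172 glioblastoma cells got an 8-point compound series (0.3% DMSO) for 1 h, then 1 μg/mL human Gas6 for 15 min. Lysate phospho-AXL quantified by ELISA against phospho-AXL standard, normalized to DMSO and reference-inhibitor controls; IC50 by 4-parameter logistic fit.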

KDR = KDR (Homo sapiens, UniProt P35968); test: KDR autophosphorylation ELISA in HUVEC cells; type: cell-based; set-up: endogenous in cells; host or cells: HUVEC (Lonza #C2519A); details: cellular activity, VEGF165-stimulated, phospho-KDR ELISA
KDR, sequence (P35968 20-1356): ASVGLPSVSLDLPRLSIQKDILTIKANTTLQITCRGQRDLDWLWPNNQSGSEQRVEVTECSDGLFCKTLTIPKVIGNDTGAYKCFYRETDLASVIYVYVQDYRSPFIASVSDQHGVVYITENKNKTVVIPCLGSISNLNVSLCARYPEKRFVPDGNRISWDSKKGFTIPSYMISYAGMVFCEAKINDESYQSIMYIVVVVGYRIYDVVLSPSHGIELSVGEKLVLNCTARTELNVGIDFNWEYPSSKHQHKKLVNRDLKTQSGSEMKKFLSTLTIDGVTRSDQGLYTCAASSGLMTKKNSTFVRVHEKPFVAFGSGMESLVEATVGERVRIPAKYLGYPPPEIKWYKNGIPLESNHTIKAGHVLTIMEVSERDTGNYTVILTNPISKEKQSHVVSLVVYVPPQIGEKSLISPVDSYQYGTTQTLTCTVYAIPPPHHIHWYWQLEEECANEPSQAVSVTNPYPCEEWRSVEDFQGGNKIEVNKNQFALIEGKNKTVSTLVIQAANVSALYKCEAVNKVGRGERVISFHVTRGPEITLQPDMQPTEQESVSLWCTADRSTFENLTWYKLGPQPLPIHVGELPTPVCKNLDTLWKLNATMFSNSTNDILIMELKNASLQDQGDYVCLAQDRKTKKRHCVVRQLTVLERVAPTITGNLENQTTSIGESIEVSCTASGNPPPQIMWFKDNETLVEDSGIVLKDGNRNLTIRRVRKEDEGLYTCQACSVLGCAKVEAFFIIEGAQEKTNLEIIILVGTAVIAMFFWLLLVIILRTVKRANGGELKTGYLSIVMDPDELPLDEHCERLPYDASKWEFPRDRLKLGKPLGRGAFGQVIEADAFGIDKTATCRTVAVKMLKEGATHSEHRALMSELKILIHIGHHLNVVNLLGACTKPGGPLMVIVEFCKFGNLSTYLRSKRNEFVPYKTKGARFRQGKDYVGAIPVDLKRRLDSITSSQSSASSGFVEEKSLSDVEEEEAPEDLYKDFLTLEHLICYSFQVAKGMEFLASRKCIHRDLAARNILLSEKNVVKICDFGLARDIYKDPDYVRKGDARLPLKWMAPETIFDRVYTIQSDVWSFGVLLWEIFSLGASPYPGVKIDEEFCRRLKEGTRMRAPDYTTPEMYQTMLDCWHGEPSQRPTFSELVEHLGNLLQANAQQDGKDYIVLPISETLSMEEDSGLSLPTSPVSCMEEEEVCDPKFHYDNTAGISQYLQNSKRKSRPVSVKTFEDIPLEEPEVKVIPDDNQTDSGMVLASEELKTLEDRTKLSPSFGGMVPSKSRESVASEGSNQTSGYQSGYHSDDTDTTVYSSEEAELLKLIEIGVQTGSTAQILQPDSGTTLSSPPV
Procedure, shortened: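 Inhibition of VEGF165-induced KDR phosphorylation was determined in serum-starved HUVEC after 1 h compound pretreatment and 5 min stimulation with 100 ng/mL VEGF165. Lysate phospho-KDR was measured by ELISA; IC50 values came from a 4-parameter logistic fit of 8-point curves.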

Row | SMILES | IC50 (AXL) [nM] | IC50 (KDR) [nM]
1 | O=C(Nc1ccc(F)cc1)C1(C(=O)Nc2ccc(Oc3ccnc4cc(-c5ccc(F)nc5)ccc34)cc2)CC1 [Compound 41, 1-N′-(4-Fluorophenyl)-1-N-[4-[7-(6-fluoropyridin-3-yl)quinolin-4-yl]oxyphenyl]cyclopropane-1,1-dicarboxamide] | 10 to 100 | 10 to 100
2 | N#Cc1ccc(-c2ccc3c(Oc4ccc(NC(=O)C5(C(=O)Nc6ccc(F)cc6)CC5)cc4)ccnc3c2)cn1 [Compound 42, 1-N-[4-[7-(6-Cyanopyridin-3-yl)quinolin-4-yl]oxyphenyl]-1-N′-(4-fluorophenyl)cyclopropane-1,1-dicarboxamide] | 10 to 100 | 10 to 100
3 | O=C(Nc1ccc(F)cc1)C1(C(=O)Nc2ccc(Oc3ccnc4cc(-c5cncc(F)c5)ccc34)cc2)CC1 [Compound 45, 1-N′-(4-Fluorophenyl)-1-N-[4-[7-(5-fluoropyridin-3-yl)quinolin-4-yl]oxyphenyl]cyclopropane-1,1-dicarboxamide] | 10 to 100 | 100 to 300
4 | Cc1cncc(-c2ccc3c(Oc4ccc(NC(=O)C5(C(=O)Nc6ccc(F)cc6)CC5)cc4)ccnc3c2)c1 [Compound 46, 1-N′-(4-Fluorophenyl)-1-N-[4-[7-(5-methylpyridin-3-yl)quinolin-4-yl]oxyphenyl]cyclopropane-1,1-dicarboxamide] | > 300 | 10 to 100
5 | COc1cncc(-c2ccc3c(Oc4ccc(NC(=O)C5(C(=O)Nc6ccc(F)cc6)CC5)cc4)ccnc3c2)c1 [Compound 47, 1-N′-(4-Fluorophenyl)-1-N-[4-[7-(5-methoxypyridin-3-yl)quinolin-4-yl]oxyphenyl]cyclopropane-1,1-dicarboxamide] | 10 to 100 | 100 to 300
6 | O=C(Nc1ccc(F)cc1)C1(C(=O)Nc2ccc(Oc3ccnc4cc(-c5ccc(O)nc5)ccc34)cc2)CC1 [Compound 51, 1-N′-(4-Fluorophenyl)-1-N-[4-[7-(6-hydroxypyridin-3-yl)quinolin-4-yl]oxyphenyl]cyclopropane-1,1-dicarboxamide] | ≤ 10 | ≤ 10
7 | O=C(Nc1ccc(F)cc1)C1(C(=O)Nc2ccc(Oc3ccnc4cc(-c5cccnc5O)ccc34)cc2)CC1 [Compound 52, 1-N′-(4-Fluorophenyl)-1-N-[4-[7-(2-hydroxypyridin-3-yl)quinolin-4-yl]oxyphenyl]cyclopropane-1,1-dicarboxamide] | 100 to 300 | 10 to 100
8 | Cc1noc(C)c1-c1ccc2c(Oc3ccc(NC(=O)C4(C(=O)Nc5ccc(F)cc5)CC4)cc3)ccnc2c1 [Compound 53, 1-N-[4-[7-(3,5-Dimethyl-1,2-oxazol-4-yl)quinolin-4-yl]oxyphenyl]-1-N′-(4-fluorophenyl)cyclopropane-1,1-dicarboxamide] | 100 to 300 | 100 to 300
9 | Cn1nccc1-c1ccc2c(Oc3ccc(NC(=O)C4(C(=O)Nc5ccc(F)cc5)CC4)cc3)ccnc2c1 [Compound 54, 1-N′-(4-Fluorophenyl)-1-N-[4-[7-(2-methylpyrazol-3-yl)quinolin-4-yl]oxyphenyl]cyclopropane-1,1-dicarboxamide] | 10 to 100 | 10 to 100
10 | O=C(Nc1ccc(F)cc1)C1(C(=O)Nc2ccc(Oc3ccnc4cc(-c5cnoc5)ccc34)cc2)CC1 [Compound 57, 1-N′-(4-Fluorophenyl)-1-N-[4-[7-(1,2-oxazol-4-yl)quinolin-4-yl]oxyphenyl]cyclopropane-1,1-dicarboxamide] | ≤ 10 | 10 to 100
11 | O=C(Nc1ccc(F)cc1)C1(C(=O)Nc2ccc(Oc3ccnc4cc(-c5cnn(C6CCNCC6)c5)ccc34)cc2)CC1 [Compound 60, 1-N′-(4-Fluorophenyl)-1-N-[4-[7-(1-piperidin-4-ylpyrazol-4-yl)quinolin-4-yl]oxyphenyl]cyclopropane-1,1-dicarboxamide] | ≤ 10 | 10 to 100
12 | CN1CCC(n2cc(-c3ccc4c(Oc5ccc(NC(=O)C6(C(=O)Nc7ccc(F)cc7)CC6)cc5)ccnc4c3)cn2)CC1 [Compound 61, 1-N′-(4-Fluorophenyl)-1-N-[4-[7-[1-(1-methylpiperidin-4-yl)pyrazol-4-yl]quinolin-4-yl]oxyphenyl]cyclopropane-1,1-dicarboxamide] | ≤ 10 | 10 to 100
13 | CC(=O)N1CCC(n2cc(-c3ccc4c(Oc5ccc(NC(=O)C6(C(=O)Nc7ccc(F)cc7)CC6)cc5)ccnc4c3)cn2)CC1 [Compound 62, 1-N-[4-[7-[1-(1-Acetylpiperidin-4-yl)pyrazol-4-yl]quinolin-4-yl]oxyphenyl]-1-N′-(4-fluorophenyl)cyclopropane-1,1-dicarboxamide] | ≤ 10 | ≤ 10
14 | C[Si](C)(C)C#Cc1ccc2c(Oc3ccc(NC(=O)C4(C(=O)Nc5ccc(F)cc5)CC4)cc3)ccnc2c1 [Compound 63, 1-N′-(4-Fluorophenyl)-1-N-[4-[7-(2-trimethylsilylethynyl)quinolin-4-yl]oxyphenyl]cyclopropane-1,1-dicarboxamide] | > 300 | > 300
15 | C#Cc1ccc2c(Oc3ccc(NC(=O)C4(C(=O)Nc5ccc(F)cc5)CC4)cc3)ccnc2c1 [Compound 64, 1-N-[4-(7-Ethynylquinolin-4-yl)oxyphenyl]-1-N′-(4-fluorophenyl)cyclopropane-1,1-dicarboxamide] | > 300 | 100 to 300
16 | O=C(Nc1ccc(F)cc1)C1(C(=O)Nc2ccc(Oc3ccnc4cc(-c5cnn[nH]5)ccc34)cc2)CC1 [Compound 65, 1-N′-(4-Fluorophenyl)-1-N-[4-[7-(1H-triazol-5-yl)quinolin-4-yl]oxyphenyl]cyclopropane-1,1-dicarboxamide] | > 300 | > 300
17 | O=C(Nc1ccc(F)cc1)C1(C(=O)Nc2ccc(Oc3ccnc4cc(-c5ncco5)ccc34)cc2)CC1 [Compound 66, 1-N′-(4-Fluorophenyl)-1-N-[4-[7-(1,3-oxazol-2-yl)quinolin-4-yl]oxyphenyl]cyclopropane-1,1-dicarboxamide] | 10 to 100 | 10 to 100
18 | O=C(Nc1ccc(F)cc1)C1(C(=O)Nc2ccc(Oc3ccnc4cc(-c5cn[nH]c5)ccc34)cc2)CC1 [Compound 67, 1-N′-(4-Fluorophenyl)-1-N-[4-[7-(1H-pyrazol-4-yl)quinolin-4-yl]oxyphenyl]cyclopropane-1,1-dicarboxamide] | ≤ 10 | ≤ 10
19 | O=C(Nc1ccc(F)cc1)C1(C(=O)Nc2ccc(Oc3ccnc4cc(-c5ccn[nH]5)ccc34)cc2)CC1 [Compound 68, 1-N′-(4-Fluorophenyl)-1-N-[4-[7-(1H-pyrazol-5-yl)quinolin-4-yl]oxyphenyl]cyclopropane-1,1-dicarboxamide] | ≤ 10 | ≤ 10
20 | Cn1cnc(-c2ccc3c(Oc4ccc(NC(=O)C5(C(=O)Nc6ccc(F)cc6)CC5)cc4)ccnc3c2)c1 [Compound 69, 1-N′-(4-Fluorophenyl)-1-N-[4-[7-(1-methylimidazol-4-yl)quinolin-4-yl]oxyphenyl]cyclopropane-1,1-dicarboxamide] | ≤ 10 | ≤ 10
21 | O=C(Nc1ccc(F)cc1)C1(C(=O)Nc2ccc(Oc3ccnc4cc(-c5cnc[nH]5)ccc34)cc2)CC1 [Compound 72, 1-N′-(4-Fluorophenyl)-1-N-[4-[7-(1H-imidazol-5-yl)quinolin-4-yl]oxyphenyl]cyclopropane-1,1-dicarboxamide] | 10 to 100 | ≤ 10
